From BigSolDB 2.1

COc1ccc(CC(=O)O)cc1
solubility (mole fraction)
Details	283.15 K	288.15 K	293.15 K	298.15 K	303.15 K	308.15 K	313.15 K	318.15 K	323.15 K
in acetonitrile	0.0423	0.0499	0.0587	0.0687	0.0803	0.0941	0.112	0.135	0.166
in anisole	0.0323	0.0425	0.0519	0.0626	0.0737	0.0858	0.0999	0.118	0.139
in isopropanol	0.114	0.142	0.169	0.198	0.228	0.258	0.289	0.323	0.351
in morpholine	0.0094	0.0139	0.0185	0.0239	0.0293	0.0348	0.0404	0.0459	0.0503
in toluene	0.0166	0.0209	0.0264	0.0337	0.0415	0.0522	0.0641	0.0784	0.0941
in water	0.0011	0.002	0.0031	0.0043	0.0057	0.0069	0.0079	0.0092	0.0105
